Data: ChEMBL document CHEMBL4184210, “Optimization of novel monobactams with activity against carbapenem-resistant Enterobacteriaceae - Identification of LYS228” (Bioorg Med Chem Lett, 2018)
≈ marks a conversion by molar mass, not a printed value.

Legend:
Escherichia coli [1] = experiment: microbe, parasite or virus in culture
Description: Antimicrobial activity against Escherichia coli expressing beta-lactamase CMY-2 by CLSI broth microdilution method

Escherichia coli [2] = experiment: microbe, parasite or virus in culture; remark: listed apart in the source
Description: Antimicrobial activity against Escherichia coli expressing beta-lactamase VIM-1 by CLSI broth microdilution method

Escherichia coli [3] = experiment: microbe, parasite or virus in culture; remark: listed apart in the source
Description: Antimicrobial activity against Escherichia coli expressing beta-lactamase KPC-4 by CLSI broth microdilution method

Escherichia coli [4] = experiment: microbe, parasite or virus in culture; remark: listed apart in the source
Description: Antimicrobial activity against Escherichia coli expressing beta-lactamase Oxa-10 by CLSI broth microdilution method

Escherichia coli [5] = experiment: microbe, parasite or virus in culture; remark: listed apart in the source
Description: Antimicrobial activity against Escherichia coli expressing beta-lactamase SPM-1 by CLSI broth microdilution method

Escherichia coli [6] = experiment: microbe, parasite or virus in culture; remark: listed apart in the source
Description: Antimicrobial activity against wild type Escherichia coli by CLSI broth microdilution method

Escherichia coli [7] = experiment: microbe, parasite or virus in culture; remark: listed apart in the source
Description: Antimicrobial activity against Escherichia coli expressing beta-lactamase SME-1 by CLSI broth microdilution method

[8] = Chemical stability in pH 7.4 potassium phosphate buffer assessed as half life for compound hydrolysis at 37 degC by UPLC and mass spectrometry; assay type: physicochemical
Escherichia coli [9] = experiment: microbe, parasite or virus in culture; remark: listed apart in the source
Description: Antimicrobial activity against Escherichia coli expressing beta-lactamase Oxa-51 by CLSI broth microdilution method

Escherichia coli [10] = experiment: microbe, parasite or virus in culture; remark: listed apart in the source
Description: Antimicrobial activity against Escherichia coli expressing beta-lactamase KPC-8 by CLSI broth microdilution method

Escherichia coli [11] = experiment: microbe, parasite or virus in culture; remark: listed apart in the source
Description: Antimicrobial activity against Escherichia coli expressing beta-lactamase P99 by CLSI broth microdilution method

Escherichia coli [12] = experiment: microbe, parasite or virus in culture; remark: listed apart in the source
Description: Antimicrobial activity against Escherichia coli expressing beta-lactamase Oxa-18 by CLSI broth microdilution method

Escherichia coli [13] = experiment: Antimicrobial activity against Escherichia coli expressing beta-lactamase NDM-5 by CLSI broth microdilution method; assay type: functional
Escherichia coli [14] = experiment: Antimicrobial activity against Escherichia coli expressing beta-lactamase NDM-1 by CLSI broth microdilution method; assay type: functional
Escherichia coli [15] = experiment: microbe, parasite or virus in culture; remark: listed apart in the source
Description: Antimicrobial activity against Escherichia coli expressing beta-lactamase MIR-1 by CLSI broth microdilution method

Escherichia coli [16] = experiment: microbe, parasite or virus in culture; remark: listed apart in the source
Description: Antimicrobial activity against Escherichia coli expressing beta-lactamase TEM-121 by CLSI broth microdilution method

Escherichia coli [17] = experiment: microbe, parasite or virus in culture; remark: listed apart in the source
Description: Antimicrobial activity against Escherichia coli expressing beta-lactamase GIM-1 by CLSI broth microdilution method

Escherichia coli [18] = experiment: microbe, parasite or virus in culture; remark: listed apart in the source
Description: Antimicrobial activity against Escherichia coli expressing beta-lactamase SHV-12 by CLSI broth microdilution method

Escherichia coli [19] = experiment: microbe, parasite or virus in culture; remark: listed apart in the source
Description: Antimicrobial activity against Escherichia coli expressing beta-lactamase GES-1 by CLSI broth microdilution method

Escherichia coli [20] = experiment: microbe, parasite or virus in culture; remark: listed apart in the source
Description: Antimicrobial activity against Escherichia coli expressing beta-lactamase PER-2 by CLSI broth microdilution method

Escherichia coli [21] = experiment: microbe, parasite or virus in culture; remark: listed apart in the source
Description: Antimicrobial activity against Escherichia coli expressing beta-lactamase CTXM-3 by CLSI broth microdilution method

Escherichia coli [22] = experiment: microbe, parasite or virus in culture; remark: listed apart in the source
Description: Antimicrobial activity against Escherichia coli expressing beta-lactamase CTXM-15 by CLSI broth microdilution method

Escherichia coli [23] = experiment: Antimicrobial activity against Escherichia coli expressing beta-lactamase TEM-1 by CLSI broth microdilution method; assay type: functional
Escherichia coli [24] = experiment: microbe, parasite or virus in culture; remark: listed apart in the source
Description: Antimicrobial activity against Escherichia coli expressing beta-lactamase Oxa-160 by CLSI broth microdilution method

Escherichia coli [25] = experiment: microbe, parasite or virus in culture; remark: listed apart in the source
Description: Antimicrobial activity against Escherichia coli expressing beta-lactamase Oxa-48 by CLSI broth microdilution method

Escherichia coli [26] = experiment: microbe, parasite or virus in culture; remark: listed apart in the source
Description: Antimicrobial activity against Escherichia coli expressing beta-lactamase TEM-16 by CLSI broth microdilution method

Escherichia coli [27] = experiment: microbe, parasite or virus in culture; remark: listed apart in the source
Description: Antimicrobial activity against Escherichia coli expressing beta-lactamase Oxa-225 by CLSI broth microdilution method

Escherichia coli [28] = experiment: microbe, parasite or virus in culture; remark: listed apart in the source
Description: Antimicrobial activity against Escherichia coli expressing beta-lactamase TEM-24 by CLSI broth microdilution method

Escherichia coli [29] = experiment: microbe, parasite or virus in culture; remark: listed apart in the source
Description: Antimicrobial activity against Escherichia coli expressing beta-lactamase Oxa-40 by CLSI broth microdilution method

Escherichia coli [30] = experiment: microbe, parasite or virus in culture; remark: listed apart in the source
Description: Antimicrobial activity against Escherichia coli expressing beta-lactamase VEB-4 by CLSI broth microdilution method

Escherichia coli [31] = experiment: Antimicrobial activity against Escherichia coli expressing beta-lactamase KPC-2 by CLSI broth microdilution method; assay type: functional
Escherichia coli [32] = experiment: microbe, parasite or virus in culture; remark: listed apart in the source
Description: Antimicrobial activity against Escherichia coli expressing beta-lactamase KPC-3 by CLSI broth microdilution method

Escherichia coli [33] = experiment: microbe, parasite or virus in culture; remark: listed apart in the source
Description: Antimicrobial activity against Escherichia coli expressing beta-lactamase TEM-47 by CLSI broth microdilution method

Escherichia coli [34] = experiment: microbe, parasite or virus in culture; remark: listed apart in the source
Description: Antimicrobial activity against Escherichia coli expressing beta-lactamase IMI-1 by CLSI broth microdilution method

Escherichia coli [35] = experiment: microbe, parasite or virus in culture; remark: listed apart in the source
Description: Antimicrobial activity against Escherichia coli expressing beta-lactamase Oxa-181 by CLSI broth microdilution method

Escherichia coli [36] = experiment: microbe, parasite or virus in culture; remark: listed apart in the source
Description: Antimicrobial activity against Escherichia coli expressing beta-lactamase IMP-1 by CLSI broth microdilution method

Escherichia coli [37] = experiment: microbe, parasite or virus in culture; remark: listed apart in the source
Description: Antimicrobial activity against Escherichia coli expressing beta-lactamase PER-4 by CLSI broth microdilution method

Escherichia coli [38] = experiment: microbe, parasite or virus in culture; remark: listed apart in the source
Description: Antimicrobial activity against Escherichia coli expressing beta-lactamase Oxa-23 by CLSI broth microdilution method

Escherichia coli [39] = experiment: Antimicrobial activity against Escherichia coli expressing beta-lactamase VEB-1 by CLSI broth microdilution method; assay type: functional
Escherichia coli [40] = experiment: microbe, parasite or virus in culture; remark: listed apart in the source
Description: Antimicrobial activity against Escherichia coli expressing beta-lactamase PER-1 by CLSI broth microdilution method

Enterobacteriaceae = experiment: Antimicrobial activity against ESBL, KPC and MBL producing Enterobacteriaceae by CLSI broth microdilution method; assay type: functional
Escherichia coli [41] = experiment: microbe, parasite or virus in culture; remark: listed apart in the source
Description: Antimicrobial activity against Escherichia coli expressing beta-lactamase DHA by CLSI broth microdilution method

Escherichia coli [42] = experiment: microbe, parasite or virus in culture; remark: listed apart in the source
Description: Antimicrobial activity against Escherichia coli expressing beta-lactamase Oxa-146 by CLSI broth microdilution method

Escherichia coli [43] = experiment: microbe, parasite or virus in culture; remark: listed apart in the source
Description: Antimicrobial activity against Escherichia coli expressing beta-lactamase NMC-A by CLSI broth microdilution method

Escherichia coli [44] = experiment: microbe, parasite or virus in culture; remark: listed apart in the source
Description: Antimicrobial activity against Escherichia coli expressing beta-lactamase AmpC by CLSI broth microdilution method

Escherichia coli [45] = experiment: microbe, parasite or virus in culture; remark: listed apart in the source
Description: Antimicrobial activity against Escherichia coli expressing beta-lactamase VEB-7 by CLSI broth microdilution method

Escherichia coli [46] = experiment: microbe, parasite or virus in culture; remark: listed apart in the source
Description: Antimicrobial activity against Escherichia coli expressing beta-lactamase TEM-10 by CLSI broth microdilution method

[47] = target: GABA A receptor alpha-2/beta-2/gamma-2 (Homo sapiens) (UniProt P47870+P18507+P47869); experiment: Inhibition of recombinant human GABA A alpha2beta2gamma2 receptor expressed in CHO-K1 cells at 300 uM incubated at room temperature for 15 mins before the GABA addition fluorescence spectrometry; assay type: cell-based
Pseudomonas aeruginosa [48] = experiment: Antimicrobial activity against Pseudomonas aeruginosa expressing nalB/delta-mexXY/delta-mexCDoprJ/delta-ampC by CLSI broth microdilution method; assay type: functional
Pseudomonas aeruginosa [49] = experiment: Antimicrobial activity against Pseudomonas aeruginosa expressing delta-mexB/mexXY/delta-ampDh2/ delta-ampD by CLSI broth microdilution method; assay type: functional
Pseudomonas aeruginosa [50] = experiment: Antimicrobial activity against Pseudomonas aeruginosa ATCC 27853 by CLSI broth microdilution method; assay type: functional
Pseudomonas aeruginosa [51] = experiment: Antimicrobial activity against Pseudomonas aeruginosa expressing delta-mexB/delta-mexXY/delta-mexCD and delta-ampC mutant by CLSI broth microdilution method; assay type: functional

C[C@@H](O)[C@H]1C(=O)N2C(C(=O)O)=C(S[C@@H]3CN[C@H](C(=O)N(C)C)C3)[C@H](C)[C@H]12 [MEROPENEM]
MIC (Escherichia coli [1]): ≤ 0.06 µg/mL
MIC (Escherichia coli [2]): 4 µg/mL (≈ 10.4 µM)
MIC (Escherichia coli [3]): 1 µg/mL (≈ 2.61 µM)
MIC (Escherichia coli [4]): ≤ 0.06 µg/mL
MIC (Escherichia coli [5]): 8 µg/mL (≈ 20.9 µM)
MIC (Escherichia coli [6]): ≤ 0.015 µg/mL
MIC (Escherichia coli [7]): 4 µg/mL (≈ 10.4 µM)
half-life [8]: 78 h
MIC (Escherichia coli [9]): ≤ 0.015 µg/mL
MIC (Escherichia coli [10]): 2 µg/mL (≈ 5.22 µM)
MIC (Escherichia coli [11]): ≤ 0.06 µg/mL
MIC (Escherichia coli [12]): ≤ 0.06 µg/mL
MIC (Escherichia coli [13]): 64 µg/mL (≈ 167 µM)
MIC (Escherichia coli [14]): 16 to 64 µg/mL (≈ 41.7 to 167 µM)
MIC (Escherichia coli [15]): ≤ 0.06 µg/mL
MIC (Escherichia coli [16]): ≤ 0.06 µg/mL
MIC (Escherichia coli [17]): 1 µg/mL (≈ 2.61 µM)
MIC (Escherichia coli [18]): ≤ 0.015 µg/mL
MIC (Escherichia coli [19]): ≤ 0.06 µg/mL
MIC (Escherichia coli [20]): ≤ 0.06 µg/mL
MIC (Escherichia coli [21]): ≤ 0.06 µg/mL
MIC (Escherichia coli [22]): ≤ 0.015 µg/mL
MIC (Escherichia coli [23]): ≤ 0.06 µg/mL
MIC (Escherichia coli [24]): 0.25 µg/mL (≈ 0.652 µM)
MIC (Escherichia coli [25]): 1 µg/mL (≈ 2.61 µM)
MIC (Escherichia coli [26]): ≤ 0.06 µg/mL
MIC (Escherichia coli [27]): 0.125 µg/mL (≈ 0.326 µM)
MIC (Escherichia coli [28]): ≤ 0.06 µg/mL
MIC (Escherichia coli [29]): 1 µg/mL (≈ 2.61 µM)
MIC (Escherichia coli [30]): ≤ 0.06 µg/mL
MIC (Escherichia coli [31]): 2 µg/mL (≈ 5.22 µM)
MIC (Escherichia coli [32]): 2 µg/mL (≈ 5.22 µM)
MIC (Escherichia coli [33]): ≤ 0.06 µg/mL
MIC (Escherichia coli [34]): 1 µg/mL (≈ 2.61 µM)
MIC (Escherichia coli [35]): 0.5 µg/mL (≈ 1.3 µM)
MIC (Escherichia coli [36]): 8 µg/mL (≈ 20.9 µM)
MIC (Escherichia coli [37]): ≤ 0.06 µg/mL
MIC (Escherichia coli [38]): 0.125 µg/mL (≈ 0.326 µM)
MIC (Escherichia coli [39]): ≤ 0.06 µg/mL
MIC (Escherichia coli [40]): ≤ 0.06 µg/mL
MIC90 (Enterobacteriaceae): 32 µg/mL (≈ 83.4 µM)
MIC (Escherichia coli [41]): ≤ 0.06 µg/mL
MIC (Escherichia coli [42]): 0.125 µg/mL (≈ 0.326 µM)
MIC (Escherichia coli [43]): 2 µg/mL (≈ 5.22 µM)
MIC (Escherichia coli [44]): ≤ 0.015 µg/mL
MIC (Escherichia coli [45]): ≤ 0.06 µg/mL

C[C@@H](O)[C@H]1C(=O)N2C(C(=O)O)=C(SCCNC=N)C[C@H]12 [IMIPENEM ANHYDROUS]
MIC (Escherichia coli [1]): 0.25 µg/mL (≈ 0.835 µM)
MIC (Escherichia coli [2]): 2 µg/mL (≈ 6.68 µM)
MIC (Escherichia coli [3]): 1 µg/mL (≈ 3.34 µM)
MIC (Escherichia coli [4]): 0.25 µg/mL (≈ 0.835 µM)
MIC (Escherichia coli [5]): 1 µg/mL (≈ 3.34 µM)
MIC (Escherichia coli [9]): 0.25 µg/mL (≈ 0.835 µM)
MIC (Escherichia coli [10]): 2 µg/mL (≈ 6.68 µM)
MIC (Escherichia coli [11]): 0.25 µg/mL (≈ 0.835 µM)
MIC (Escherichia coli [46]): 0.25 µg/mL (≈ 0.835 µM)
MIC (Escherichia coli [12]): 0.25 µg/mL (≈ 0.835 µM)
MIC (Escherichia coli [13]): 16 µg/mL (≈ 53.4 µM)
MIC (Escherichia coli [14]): 16 µg/mL (≈ 53.4 µM)
MIC (Escherichia coli [15]): 0.5 µg/mL (≈ 1.67 µM)
MIC (Escherichia coli [16]): 0.25 µg/mL (≈ 0.835 µM)
MIC (Escherichia coli [17]): 1 µg/mL (≈ 3.34 µM)
MIC (Escherichia coli [18]): 0.25 µg/mL (≈ 0.835 µM)
MIC (Escherichia coli [19]): 0.25 µg/mL (≈ 0.835 µM)
MIC (Escherichia coli [20]): 0.25 µg/mL (≈ 0.835 µM)
MIC (Escherichia coli [21]): 0.25 µg/mL (≈ 0.835 µM)
MIC (Escherichia coli [24]): 1 µg/mL (≈ 3.34 µM)
MIC (Escherichia coli [25]): 1 µg/mL (≈ 3.34 µM)
MIC (Escherichia coli [26]): 0.25 µg/mL (≈ 0.835 µM)
MIC (Escherichia coli [27]): 1 µg/mL (≈ 3.34 µM)
MIC (Escherichia coli [28]): 0.25 µg/mL (≈ 0.835 µM)
MIC (Escherichia coli [29]): 1 µg/mL (≈ 3.34 µM)
MIC (Escherichia coli [30]): 0.25 µg/mL (≈ 0.835 µM)
MIC (Escherichia coli [31]): 2 to 16 µg/mL (≈ 6.68 to 53.4 µM)
MIC (Escherichia coli [32]): 2 µg/mL (≈ 6.68 µM)
MIC (Escherichia coli [34]): 2 µg/mL (≈ 6.68 µM)
MIC (Escherichia coli [35]): 1 µg/mL (≈ 3.34 µM)
MIC (Escherichia coli [36]): 2 µg/mL (≈ 6.68 µM)
MIC (Escherichia coli [37]): 0.25 µg/mL (≈ 0.835 µM)
MIC (Escherichia coli [38]): 1 µg/mL (≈ 3.34 µM)
MIC (Escherichia coli [39]): 0.125 µg/mL (≈ 0.418 µM)
MIC (Escherichia coli [40]): 0.25 µg/mL (≈ 0.835 µM)
inhibition [47]: 15%
MIC (Escherichia coli [42]): 0.25 µg/mL (≈ 0.835 µM)
MIC (Escherichia coli [43]): 2 µg/mL (≈ 6.68 µM)
MIC (Escherichia coli [44]): 0.25 µg/mL (≈ 0.835 µM)
MIC (Escherichia coli [45]): 0.25 µg/mL (≈ 0.835 µM)

CC(C)(O/N=C(\C(=O)N[C@@H]1C(=O)N(S(=O)(=O)O)[C@@H]1Cn1cncn1)c1csc(N)n1)C(=O)O (stereo in doubt)
MIC (Escherichia coli [1]): 8 µg/mL (≈ 15.9 µM)
MIC (Escherichia coli [6]): 0.5 µg/mL (≈ 0.995 µM)
half-life [8]: 233 h
MIC (Escherichia coli [46]): 1 µg/mL (≈ 1.99 µM)
MIC (Escherichia coli [14]): 0.5 µg/mL (≈ 0.995 µM)
MIC (Escherichia coli [18]): 1 µg/mL (≈ 1.99 µM)
MIC (Escherichia coli [22]): 0.5 µg/mL (≈ 0.995 µM)
MIC (Pseudomonas aeruginosa [48]): > 64 µg/mL
MIC (Escherichia coli [31]): 1 µg/mL (≈ 1.99 µM)
MIC (Pseudomonas aeruginosa [49]): > 64 µg/mL
MIC (Pseudomonas aeruginosa [50]): 32 µg/mL (≈ 63.7 µM)
MIC (Pseudomonas aeruginosa [51]): 1 µg/mL (≈ 1.99 µM)
MIC (Escherichia coli [44]): 16 µg/mL (≈ 31.8 µM)
